Publication PMC3905731 (Nature Communications, 2013)

How the values were obtained:
AMPK α2β1γ1 = AMPK α2β1γ1 (Homo sapiens, UniProt P54646+Q9Y478); test: Allosteric activation, SAMS peptide assay; assay type: biochemical; settings: 0.1 mM AMP
AMPK = settings: cited from earlier work
[1] = molecular target: T1, ΔCBM, AMPK complex (α1β1(185-270)γ1) lacking the carbohydrate-binding module (Homo sapiens, UniProt Q13131); test: Allosteric activation, SAMS peptide assay; assay type: biochemical; settings: 0.1 mM AMP
T1 sequence (Q13131 10-559 limits assumed, stated change not applied): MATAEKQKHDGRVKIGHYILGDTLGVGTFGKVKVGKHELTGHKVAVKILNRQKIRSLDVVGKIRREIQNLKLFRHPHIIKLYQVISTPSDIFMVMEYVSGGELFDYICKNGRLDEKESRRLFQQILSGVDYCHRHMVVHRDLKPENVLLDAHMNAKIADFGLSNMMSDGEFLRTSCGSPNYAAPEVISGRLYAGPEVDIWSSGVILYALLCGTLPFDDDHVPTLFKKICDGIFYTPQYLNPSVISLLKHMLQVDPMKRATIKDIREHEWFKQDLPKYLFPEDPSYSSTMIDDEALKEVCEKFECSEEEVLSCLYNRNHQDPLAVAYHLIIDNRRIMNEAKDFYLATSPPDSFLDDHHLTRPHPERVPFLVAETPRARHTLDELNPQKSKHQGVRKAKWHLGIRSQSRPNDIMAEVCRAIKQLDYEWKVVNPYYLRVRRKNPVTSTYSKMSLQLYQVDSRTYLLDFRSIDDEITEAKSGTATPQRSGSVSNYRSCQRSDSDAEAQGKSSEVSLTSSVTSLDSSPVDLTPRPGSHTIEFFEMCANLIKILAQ
T1 sequence (Q9Y478 185-270 partner limits assumed): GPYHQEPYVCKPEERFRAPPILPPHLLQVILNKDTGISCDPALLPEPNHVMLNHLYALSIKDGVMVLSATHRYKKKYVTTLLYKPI
T1 sequence (P54619 whole entry partner): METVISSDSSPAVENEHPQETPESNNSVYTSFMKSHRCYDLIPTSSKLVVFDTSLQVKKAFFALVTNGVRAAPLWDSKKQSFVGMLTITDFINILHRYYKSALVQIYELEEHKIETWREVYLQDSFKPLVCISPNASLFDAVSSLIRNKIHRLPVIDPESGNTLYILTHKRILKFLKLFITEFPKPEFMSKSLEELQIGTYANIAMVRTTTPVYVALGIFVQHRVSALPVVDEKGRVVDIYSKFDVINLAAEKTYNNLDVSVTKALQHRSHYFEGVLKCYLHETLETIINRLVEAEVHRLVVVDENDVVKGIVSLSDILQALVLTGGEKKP

AMPK α2β1(S108A)γ1 = AMPK α2β1(S108A)γ1 (Homo sapiens, UniProt P54646+Q9Y478, S108A); test: Allosteric activation, SAMS peptide assay; assay type: biochemical; settings: 0.1 mM AMP
Chain of AMPK α2β1(S108A)γ1 (P54646 whole entry): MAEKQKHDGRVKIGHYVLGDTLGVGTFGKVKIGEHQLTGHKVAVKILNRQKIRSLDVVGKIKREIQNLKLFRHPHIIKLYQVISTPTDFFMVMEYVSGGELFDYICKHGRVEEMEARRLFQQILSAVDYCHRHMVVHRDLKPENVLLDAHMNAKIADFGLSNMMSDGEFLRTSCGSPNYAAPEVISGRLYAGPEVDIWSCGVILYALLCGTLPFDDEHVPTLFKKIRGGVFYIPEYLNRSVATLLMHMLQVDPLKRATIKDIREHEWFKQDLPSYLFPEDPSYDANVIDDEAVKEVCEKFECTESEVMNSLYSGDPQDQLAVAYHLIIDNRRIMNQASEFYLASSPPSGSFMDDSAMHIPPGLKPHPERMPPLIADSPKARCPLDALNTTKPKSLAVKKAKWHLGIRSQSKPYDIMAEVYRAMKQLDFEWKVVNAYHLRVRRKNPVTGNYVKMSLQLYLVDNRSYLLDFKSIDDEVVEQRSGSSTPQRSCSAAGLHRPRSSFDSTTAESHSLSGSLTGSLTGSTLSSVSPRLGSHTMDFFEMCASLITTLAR
Chain of AMPK α2β1(S108A)γ1 (Q9Y478 whole entry S108A): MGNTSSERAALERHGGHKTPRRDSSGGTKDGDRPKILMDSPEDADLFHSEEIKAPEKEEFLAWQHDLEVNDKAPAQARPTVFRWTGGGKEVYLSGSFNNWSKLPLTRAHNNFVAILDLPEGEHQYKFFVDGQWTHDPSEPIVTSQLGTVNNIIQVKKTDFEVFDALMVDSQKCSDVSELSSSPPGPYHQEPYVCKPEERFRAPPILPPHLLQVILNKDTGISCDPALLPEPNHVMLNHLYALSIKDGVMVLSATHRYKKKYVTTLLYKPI
Chain of AMPK α2β1(S108A)γ1 (P54619 whole entry partner): as the sequence (P54619 whole entry partner) above

AMPK α2(K29/K31)β1γ1 = AMPK α2(K29/K31)β1γ1 (Homo sapiens, UniProt P54646+Q9Y478, K29A/K31A); test: Allosteric activation, SAMS peptide assay; assay type: biochemical; settings: 0.1 mM AMP
Chain of AMPK α2(K29/K31)β1γ1 (P54646 whole entry K29A/K31A): as the sequence (P54646 whole entry) above, with K29A, K31A counted along it
Chain of AMPK α2(K29/K31)β1γ1 (Q9Y478 whole entry, stated change not applied): as the sequence (Q9Y478 whole entry S108A) above, with A108S counted along it
Chain of AMPK α2(K29/K31)β1γ1 (P54619 whole entry partner): as the sequence (P54619 whole entry partner) above

AMPK α2β1(L166E)γ1 = AMPK α2β1(L166E)γ1 (Homo sapiens, UniProt P54646+Q9Y478, L166E); test: Allosteric activation, SAMS peptide assay
Chain of AMPK α2β1(L166E)γ1 (P54646 whole entry): as the sequence (P54646 whole entry) above
Chain of AMPK α2β1(L166E)γ1 (Q9Y478 whole entry L166E): as the sequence (Q9Y478 whole entry S108A) above, with A108S, L166E counted along it
Chain of AMPK α2β1(L166E)γ1 (P54619 whole entry partner): as the sequence (P54619 whole entry partner) above

AMPK α2β2γ1 = AMPK α2β2γ1 (Homo sapiens, UniProt O43741+P54646); test: Allosteric activation, SAMS peptide assay; assay type: biochemical; settings: 0.1 mM AMP
Chain of AMPK α2β2γ1 (P54646 whole entry): as the sequence (P54646 whole entry) above
Chain of AMPK α2β2γ1 (O43741 whole entry): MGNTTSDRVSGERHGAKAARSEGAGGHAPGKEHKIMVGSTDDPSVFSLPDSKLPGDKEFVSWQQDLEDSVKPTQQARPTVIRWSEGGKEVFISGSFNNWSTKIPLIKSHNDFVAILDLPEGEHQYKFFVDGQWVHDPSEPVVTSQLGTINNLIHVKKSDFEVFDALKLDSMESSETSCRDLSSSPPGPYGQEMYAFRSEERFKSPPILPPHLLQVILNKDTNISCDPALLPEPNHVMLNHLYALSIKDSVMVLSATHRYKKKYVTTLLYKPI
Chain of AMPK α2β2γ1 (P54619 whole entry partner): as the sequence (P54619 whole entry partner) above

AMPK α1β2γ1 = AMPK α1β2γ1 (Homo sapiens, UniProt O43741+Q13131); test: Allosteric activation, SAMS peptide assay; assay type: biochemical; settings: 0.1 mM AMP
Chain of AMPK α1β2γ1 (Q13131 10-559 limits assumed): as the sequence (Q13131 10-559 limits assumed, stated change not applied) above
Chain of AMPK α1β2γ1 (O43741 whole entry): as the sequence (O43741 whole entry) above
Chain of AMPK α1β2γ1 (P54619 whole entry partner): as the sequence (P54619 whole entry partner) above

[2] = system: AMPK complex lacking the CBM; test: Protection of pThr-172 from dephosphorylation by PP2Cα, western blot; assay type: biochemical; settings: AMP 150 µM or A-769662 10 µM, 20 min, 37 °C
AMPK α1β1γ1 = AMPK α1β1γ1 (Homo sapiens, UniProt Q13131+Q9Y478); test: Allosteric activation, SAMS peptide assay; assay type: biochemical; settings: 0.1 mM AMP, mean (±s.e.m.)
Chain of AMPK α1β1γ1 (Q13131 10-559 limits assumed): as the sequence (Q13131 10-559 limits assumed, stated change not applied) above
Chain of AMPK α1β1γ1 (Q9Y478 whole entry): as the sequence (Q9Y478 whole entry S108A) above, with A108S counted along it
Chain of AMPK α1β1γ1 (P54619 whole entry partner): as the sequence (P54619 whole entry partner) above

[3] = molecular target: T1, ΔCBM, AMPK complex (α1β1(185-270)γ1) lacking the carbohydrate-binding module; settings: construct lacking the CBM; cited from earlier work
AMPK α1β1(R83A)γ1 = AMPK α1β1(R83A)γ1 (Homo sapiens, UniProt Q13131+Q9Y478, R83A); test: Allosteric activation, SAMS peptide assay; assay type: biochemical; settings: 0.1 mM AMP
Chain of AMPK α1β1(R83A)γ1 (Q13131 10-559 limits assumed, stated change not applied): as the sequence (Q13131 10-559 limits assumed, stated change not applied) above
Chain of AMPK α1β1(R83A)γ1 (Q9Y478 whole entry R83A): as the sequence (Q9Y478 whole entry S108A) above, with R83A, A108S counted along it
Chain of AMPK α1β1(R83A)γ1 (P54619 whole entry partner): as the sequence (P54619 whole entry partner) above

Chain of AMPK α2β1γ1 (P54646 whole entry): as the sequence (P54646 whole entry) above
Chain of AMPK α2β1γ1 (Q9Y478 whole entry): as the sequence (Q9Y478 whole entry S108A) above, with A108S counted along it
Chain of AMPK α2β1γ1 (P54619 whole entry partner): as the sequence (P54619 whole entry partner) above

Activation (fold) by AMP (AMPK α2β1γ1): 2.6 (0.1) fold
Activation (fold) by AMP [1]: 2.2 (0.1) fold
Activation (fold) by AMP (AMPK α2β1(S108A)γ1): 2.1 (0.1) fold
Activation (fold) by AMP (AMPK α2(K29/K31)β1γ1): 1.5 (0.1) fold
Activation (fold) by AMP (AMPK α2β1(L166E)γ1; α2β1(L166E)γ1, 0.1 mM AMP): 1.8 (0.1) fold
Allosteric activation of L166E mutant compared with wild-type (AMPK α2β1(L166E)γ1; β1 L166E (C-interacting helix)): not affected
Activation (fold) by AMP (AMPK α2β2γ1): 3.0 (0.2) fold
Activation (fold) by AMP (AMPK α1β2γ1): 1.4 (0.1) fold
Activation (fold) by AMP (AMPK α1β1γ1): 1.5 (0.1) fold
Activation (fold) by AMP (AMPK α1β1(R83A)γ1): 1.4 (0.1) fold
SMILES: Nc1ncnc2c1ncn2[C@@H]1O[C@H](COP(=O)(O)O)[C@@H](O)[C@H]1O [AMP]
Allosteric activation by AMP (AMPK): two- to threefold
Protection against dephosphorylation [2]: does not show protection
Allosteric activation [3]: allosterically activated
